Structures are written as SMILES. Bounds are passed on as bounds.

In this experiment the test system is HEK293T cells carrying the ATF4 luciferase reporter. Description: ATF4-Luc assay (ATF4 luciferase reporter, tunicamycin-treated cells). In kind it is cell-based. Conditions: Homo sapiens, HEK-293T, 1 μg/mL tunicamycin, 7 hours. The procedure: In order to test exemplary compounds of the invention in a cellular context, a stable VWMD cell line was first constructed. The ATF4 reporter was prepared by fusing the human full-length ATF4 5′-UTR (NCBI Accession No. BC022088.2) in front of the firefly luciferase (FLuc) coding sequence lacking the initiator methionine as described in Sidrauski et al (eLife 2013). The construct was used to produce recombinant retroviruses using standard methods and the resulting viral supermatant was used to transduce ITEK293T cells, which were then subsequently selected with puromycin to generate a stable cell line.
HTEK293T cells carrying the ATF4 luciferase reporter were plated on polylysine coated 384-well plates (Greiner Bio-one) at 30,000 cells per well. Cells were treated the next day with 1 μg/mL tunicamycin and 200 nM of a compound of Formula (I) for 7 hours. Luminescence was measured using One Glo (Promega) as specified by the manufacturer. Cells were maintained in DMEM with L-glutamine supplemented with 10% heat-inactivated FBS (Gibco) and Antibiotic-Antimycotic solution (Gibco).
Table 2 below summarizes the EC50 data obtained using the ATF4-Luc assay for exemplary compounds of the invention.
(In general: Reporter assays use an easily measured gene product as a stand-in for the process of interest.)
The term EC50 denotes the midpoint of the concentration-response curve. In the case of `O=C(COc1ccc(Cl)c(F)c1)NC12CC(NC(=O)c3cc4c(cn3)CCCC4)(C1)C2` [Compound 972, N-{3-[2-(4-chloro-3-fluorophenoxy)acetamido]bicyclo[1.1.1]pentan-1-yl}-5,6,7,8-tetrahydroisoquinoline-3-carboxamide], the concentration giving a half-maximal response (EC50) is 50 to 250 nM. To `O=C(COc1ccc(Cl)c(F)c1)NC12CCC(NC(=O)c3cnc4cc(C(F)(F)F)ccc4n3)(CC1)C[C@@H]2O` [Compound 973, N-{(3S)-4-[2-(4-chloro-3-fluorophenoxy)acetamido]-3-hydroxybicyclo[2.2.2]octan-1-yl}-6-(trifluoromethyl)quinoxaline-2-carboxamide] belongs less than 50 nM; to `CN(C)Cc1ccnc(C(=O)NC23CCC(NC(=O)COc4ccc(Cl)c(F)c4)(CC2)CC3)c1` [Compound 974, N-{4-[2-(4-chloro-3-fluorophenoxy)acetamido]bicyclo[2.2.2]octan-1-yl}-4-[(dimethylamino)methyl]pyridine-2-carboxamide], greater than 2000 nM.

`NCc1ccnc(C(=O)NC23CCC(NC(=O)COc4ccc(Cl)c(F)c4)(CC2)CC3)c1` [Compound 975, 4-(aminomethyl)-N-{4-[2-(4-chloro-3-fluorophenoxy)acetamido]bicyclo[2.2.2]octan-1-yl}pyridine-2-carboxamide]: the concentration for a half-maximal effect (EC50) is less than 50 nM.

Turning to `O=C(COc1ccc(Cl)c(F)c1)NC12CCC(NC(=O)c3cc4cccn4cn3)(CC1)C[C@@H]2O` [Compound 976, N-{(3S)-4-[2-(4-chloro-3-fluorophenoxy)acetamido]-3-hydroxybicyclo[2.2.2]octan-1-yl}pyrrolo[1,2-c]pyrimidine-3-carboxamide], the EC50 lay in the range of 50 to 250 nM. With `O=C(COc1ccc(Cl)c(F)c1)NC12CCC(NC(=O)c3ccnc(CO)c3)(CC1)CC2` [Compound 977, N-{4-[2-(4-chloro-3-fluorophenoxy)acetamido]bicyclo[2.2.2]octan-1-yl}-2-(hydroxymethyl)pyridine-4-carboxamide], the EC50 was greater than 2000 nM. For the compound `CC(C)(C)OC(=O)NCc1ccnc(C(=O)NC23CCC(NC(=O)COc4ccc(Cl)c(F)c4)(CC2)CC3)c1` [Compound 978, tert-butyl {[2-({4-[2-(4-chloro-3-fluorophenoxy)acetamido]bicyclo[2.2.2]octan-1-yl}carbamoyl)pyridin-4-yl]methyl}carbamate], the EC50 is greater than 2000 nM. To `CCc1cnc(C(=O)NC23CCC(NC(=O)COc4ccc(Cl)c(F)c4)(CC2)CC3)cn1` [Compound 979, N-{4-[2-(4-chloro-3-fluorophenoxy)acetamido]bicyclo[2.2.2]octan-1-yl}-5-ethylpyrazine-2-carboxamide] belongs greater than 2000 nM. To `O=C(COc1ccc(Cl)c(Cl)c1)NC12CCC(NC(=O)c3ccc(C(F)F)cn3)(CC1)CC2` [Compound 980, N-{4-[2-(3,4-dichlorophenoxy)acetamido]bicyclo[2.2.2]octan-1-yl}-5-(difluoromethyl)pyridine-2-carboxamide] belongs 50 to 250 nM.

For `O=C(COc1ccc(Cl)c(F)c1)NC12CCC(NC(=O)c3cccc(CO)c3)(CC1)CC2` [Compound 981, N-{4-[2-(4-chloro-3-fluorophenoxy)acetamido]bicyclo[2.2.2]octan-1-yl}-3-(hydroxymethyl)benzamide], the EC50 fell in the range of 250 to 1000 nM. For `O=C(COc1ccc(Cl)c(F)c1)NC12CCC(NC(=O)c3cccc(O)c3)(CC1)CC2` [Compound 982, N-{4-[2-(4-chloro-3-fluorophenoxy)acetamido]bicyclo[2.2.2]octan-1-yl}-3-hydroxybenzamide], the concentration giving a half-maximal response (EC50) is 250 to 1000 nM. Under `O=C(COc1ccc(Cl)c(F)c1)NC12CCC(NC(=O)c3cc(C(F)F)no3)(CC1)CC2` [Compound 983, N-{4-[2-(4-chloro-3-fluorophenoxy)acetamido]bicyclo[2.2.2]octan-1-yl}-3-(difluoromethyl)-1,2-oxazole-5-carboxamide] stands 250 to 1000 nM; under `O=C(COc1ccc(Cl)c(F)c1)NC12CCC(NC(=O)c3ccc4c(c3)OC(F)(F)O4)(CC1)C[C@@H]2O` [Compound 984, N-{(3S)-4-[2-(4-chloro-3-fluorophenoxy)acetamido]-3-hydroxybicyclo[2.2.2]octan-1-yl}-2,2-difluoro-2H-1,3-benzodioxole-5-carboxamide], less than 50 nM; under `O=C(COc1ccc(Cl)c(Cl)c1)NC12CCC(NC(=O)c3ccc4c(c3)OC(F)(F)O4)(CC1)C[C@@H]2O` [Compound 985, N-{(3S)-4-[2-(3,4-dichlorophenoxy)acetamido]-3-hydroxybicyclo[2.2.2]octan-1-yl}-2,2-difluoro-2H-1,3-benzodioxole-5-carboxamide], less than 50 nM. To `O=C(COc1ccc(Cl)c(F)c1)NC12CCC(NC(=O)c3cnc(C(F)F)cn3)(CC1)C[C@@H]2O` [Compound 986, N-{(3S)-4-[2-(4-chloro-3-fluorophenoxy)acetamido]-3-hydroxybicyclo[2.2.2]octan-1-yl}-5-(difluoromethyl)pyrazine-2-carboxamide] belongs less than 50 nM; to `O=C(COc1ccc(Cl)c(Cl)c1)NC12CCC(NC(=O)c3ccc(C(F)F)nc3)(CC1)C[C@@H]2O` [Compound 987, N-{(3S)-4-[2-(3,4-dichlorophenoxy)acetamido]-3-hydroxybicyclo[2.2.2]octan-1-yl}-6-(difluoromethyl)pyridine-3-carboxamide], less than 50 nM. To `O=C(COc1ccc(Cl)c(F)c1)NC12CCC(NC(=O)c3ccc(C(F)F)nc3)(CC1)C[C@@H]2O` [Compound 988, N-{(3S)-4-[2-(4-chloro-3-fluorophenoxy)acetamido]-3-hydroxybicyclo[2.2.2]octan-1-yl}-6-(difluoromethyl)pyridine-3-carboxamide] belongs 50 to 250 nM. `O=C(COc1ccc(Cl)c(F)c1)NC12CCC(NC(=O)c3cnc(C4CC4)o3)(CC1)CC2` [Compound 989, N-{4-[2-(4-chloro-3-fluorophenoxy)acetamido]bicyclo[2.2.2]octan-1-yl}-2-cyclopropyl-1,3-oxazole-5-carboxamide]: the EC50 was in the range of 250 to 1000 nM. Under `O=C(COc1ccc(Cl)c(Cl)c1)NC12CCC(NC(=O)c3ccc(C(F)F)cn3)(CC1)C[C@@H]2O` [Compound 990, N-{(3S)-4-[2-(3,4-dichlorophenoxy)acetamido]-3-hydroxybicyclo[2.2.2]octan-1-yl}-5-(difluoromethyl)pyridine-2-carboxamide] stands less than 50 nM; under `O=C(COc1ccc(Cl)c(Cl)c1)NC12CCC(NC(=O)c3cc(CO)ccn3)(CC1)CC2` [Compound 991, N-{4-[2-(3,4-dichlorophenoxy)acetamido]bicyclo[2.2.2]octan-1-yl}-4-(hydroxymethyl)pyridine-2-carboxamide], less than 50 nM; under `COCc1cncc(C(=O)NC23CCC(NC(=O)COc4ccc(Cl)c(Cl)c4)(CC2)CC3)c1` [Compound 992, N-{4-[2-(3,4-dichlorophenoxy)acetamido]bicyclo[2.2.2]octan-1-yl}-5-(methoxymethyl)pyridine-3-carboxamide], 50 to 250 nM.

Consider `O=C(COc1ccc(Cl)c(Cl)c1)NC12CCC(NC(=O)c3ccccn3)(CC1)CC2` [Compound 993, N-{4-[2-(3,4-dichlorophenoxy)acetamido]bicyclo[2.2.2]octan-1-yl}pyridine-2-carboxamide], for which the EC50 lay within 50 to 250 nM. To `O=C(COc1ccc(Cl)c(Cl)c1)NC12CCC(NC(=O)c3cccnc3)(CC1)CC2` [Compound 994, N-{4-[2-(3,4-dichlorophenoxy)acetamido]bicyclo[2.2.2]octan-1-yl}pyridine-3-carboxamide] belongs 250 to 1000 nM. To `O=C(COc1ccc(Cl)c(F)c1)NC12CCC(NC(=O)c3cc(CO)ccn3)(CC1)CC2` [Compound 995, N-{4-[2-(4-chloro-3-fluorophenoxy)acetamido]bicyclo[2.2.2]octan-1-yl}-4-(hydroxymethyl)pyridine-2-carboxamide] belongs less than 50 nM.

For the compound `O=C(COc1ccc(Cl)c(F)c1)NC12CCC(NC(=O)c3ccc(OC(F)(F)F)nc3)(CC1)CC2` [Compound 996, N-{4-[2-(4-chloro-3-fluorophenoxy)acetamido]bicyclo[2.2.2]octan-1-yl}-6-(trifluoromethoxy)pyridine-3-carboxamide], the EC50 was greater than 2000 nM. Under `O=C(COc1ccc(Cl)c(F)c1)NC12CCC(NC(=O)c3ccc(OC(F)(F)F)cn3)(CC1)CC2` [Compound 997, N-{4-[2-(4-chloro-3-fluorophenoxy)acetamido]bicyclo[2.2.2]octan-1-yl}-5-(trifluoromethoxy)pyridine-2-carboxamide] stands 50 to 250 nM; under `O=C(COc1ccc(Cl)c(F)c1)NC12CCC(NC(=O)c3ccc4cc(F)ccc4n3)(CC1)C[C@@H]2O` [Compound 998, N-{(3S)-4-[2-(4-chloro-3-fluorophenoxy)acetamido]-3-hydroxybicyclo[2.2.2]octan-1-yl}-6-fluoroquinoline-2-carboxamide], less than 50 nM. As to `O=C(COc1ccc(Cl)c(Cl)c1)NC12CCC(NC(=O)c3ccc4cc(F)ccc4n3)(CC1)C[C@@H]2O` [Compound 999, N-{(3S)-4-[2-(3,4-dichlorophenoxy)acetamido]-3-hydroxybicyclo[2.2.2]octan-1-yl}-6-fluoroquinoline-2-carboxamide], the EC50 was less than 50 nM. Under `O=C(COc1ccc(Cl)c(Cl)c1)NC12CCC(NC(=O)c3ccc(C(F)(F)F)o3)(CC1)C[C@@H]2O` [Compound 1000, N-{(3S)-4-[2-(3,4-dichlorophenoxy)acetamido]-3-hydroxybicyclo[2.2.2]octan-1-yl}-5-(trifluoromethyl)furan-2-carboxamide] stands less than 50 nM.

The record behind these values is US20240307382A1, “MODULATORS OF THE INTEGRATED STRESS PATHWAY” (Calico Life Sciences LLC, priority 2017, published 2024).
